{"source": "the OPERA property sets (Mansouri et al. 2018)", "data": [{"settings": "not given", "units": {"boiling point": "°C", "melting point": "°C"}, "values": [{"compound": "CC(C)CCO[N+](=O)[O-]", "boiling point": 146, "log10 Henry constant (atm·m³/mol)": -2.59, "log10 vapour pressure (mmHg)": 0.71}, {"compound": "c1ccc2c(c1)c1cccc3ccc4cccc2c4c31", "log10 biodegradation half-life (days)": 2.56, "log10 vapour pressure (mmHg)": -8.24, "melting point": 178}, {"compound": "CCCSC", "boiling point": 95.6, "log10 vapour pressure (mmHg)": 1.71, "melting point": -113}, {"compound": "CCC(C)CC(C)CC", "note": "(configuration not stated)", "boiling point": 136}, {"compound": "FC(Br)Br", "boiling point": 64.9, "melting point": -78}, {"compound": "C=C(CCC)CCC", "boiling point": 118}, {"compound": "CCOC(=O)c1cccc(C)c1", "boiling point": 234}, {"compound": "Cc1ccc(C#N)c(=O)[nH]1", "ready biodegradability": "readily biodegradable"}, {"compound": "CC(C)c1cccs1", "boiling point": 153}, {"compound": "CCC(C)C(C(=O)OCC[N+](C)(CC)CC)c1ccccc1.[Br-]", "note": "(configuration not stated)", "melting point": 102}, {"compound": "CCCC(C)(C)C(C)(C)C", "boiling point": 160, "log10 vapour pressure (mmHg)": 0.589, "melting point": -54}, {"compound": "C=C=C(C)CC", "boiling point": 70}, {"compound": "CC(C)OC(=O)[C@H](C)N(C(=O)c1ccccc1)c1ccc(F)c(Cl)c1", "melting point": 78.5}, {"compound": "NC(=O)COc1ccccc1", "melting point": 102}, {"compound": "CC(C)COC(=O)c1ccccc1C(=O)OCC(C)C", "boiling point": 296, "log10 Koc (L/kg)": 3.14, "ready biodegradability": "not readily biodegradable"}, {"compound": "CCCCCCC(=O)CCCCCC", "boiling point": 261, "log10 vapour pressure (mmHg)": -2.18, "melting point": 33}, {"compound": "Clc1cccc(Oc2ccc(Cl)c(Cl)c2)c1", "log10 vapour pressure (mmHg)": -3.91}, {"compound": "Cc1cc(C)cc(CO)c1", "boiling point": 220}, {"compound": "Nc1ccc(Oc2ccccc2)cc1", "melting point": 83}, {"compound": "CCNC=O", "boiling point": 198}, {"compound": "O=[N+]([O-])c1cccc2ncccc12", "melting point": 74}, {"compound": "CCCC(C(N)=O)n1nnc2ccccc21", "note": "(configuration not stated)", "melting point": 125}, {"compound": "COc1c(C)c2c(c(O)c1C/C=C(\\C)CCC(=O)O)C(=O)OC2", "melting point": 141}, {"compound": "CC(=O)[C@@]1(O)CC[C@H]2[C@@H]3CC[C@H]4C[C@@H](O)CC[C@]4(C)[C@H]3CC[C@@]21C", "melting point": 265}, {"compound": "Oc1ccc(C2CCCC2)cc1", "melting point": 65}, {"compound": "c1cc2c3c(cccc3c1)CC2", "boiling point": 279, "log10 Henry constant (atm·m³/mol)": -3.74, "log10 Koa": 6.31, "log10 Koc (L/kg)": 3.59, "log10 biodegradation half-life (days)": 1.59, "log10 vapour pressure (mmHg)": -2.67, "melting point": 93.4, "ready biodegradability": "not readily biodegradable"}, {"compound": "CCC[C@@H](C)S", "boiling point": 113, "melting point": -169}, {"compound": "O=c1cccco1", "boiling point": 208, "melting point": 8.5}, {"compound": "ClCCCOCCCCl", "boiling point": 216}, {"compound": "CCCSCCC", "boiling point": 143, "log10 Henry constant (atm·m³/mol)": -2.49, "log10 vapour pressure (mmHg)": 0.81, "melting point": -102}, {"compound": "OCc1ccccc1O", "melting point": 87, "ready biodegradability": "not readily biodegradable"}, {"compound": "CCCCCCCC(=O)CCC", "melting point": 4.5}, {"compound": "CCCN(C(C)=O)c1ccccc1", "boiling point": 268, "melting point": 49}, {"compound": "CCOP(=S)(OCC)Oc1ccc2c3c(c(=O)oc2c1)CCCC3", "melting point": 88.2}, {"compound": "O=[N+]([O-])c1ccc(S(=O)(=O)O)cc1", "ready biodegradability": "not readily biodegradable"}, {"compound": "Cc1cccc(C)c1", "boiling point": 139, "log10 Henry constant (atm·m³/mol)": -2.14, "log10 Koa": 3.78, "log10 Koc (L/kg)": 2.25, "log10 biodegradation half-life (days)": 1, "log10 vapour pressure (mmHg)": 0.919, "melting point": -47.8, "ready biodegradability": "readily biodegradable"}, {"compound": "CN1CCCN=C1/C=C/c1cccs1", "melting point": 178}, {"compound": "O=[N+]([O-])O[C@H]1CO[C@H]2[C@@H]1OC[C@H]2O[N+](=O)[O-]", "melting point": 70}, {"compound": "CCC(C)(CC)c1cc(NC(=O)c2c(OC)cccc2OC)on1", "log10 Koc (L/kg)": 2.4, "log10 vapour pressure (mmHg)": -8.38, "melting point": 178}, {"compound": "CC1=C(c2ccccc2)C(=O)N(C(C)(C)c2cc(Cl)cc(Cl)c2)CO1", "melting point": 150}, {"compound": "CCCCCCCCCCCCCC(=O)OCc1ccccc1", "melting point": 20.5}, {"compound": "CN(C)c1ccc(N=Nc2ccc([N+](=O)[O-])cc2)cc1", "log10 vapour pressure (mmHg)": -10, "melting point": 236}, {"compound": "OCc1c(F)c(F)c(F)c(F)c1F", "boiling point": 181, "melting point": 37.5}, {"compound": "CCCC(=O)OCC", "boiling point": 122, "log10 Koa": 3.56, "log10 vapour pressure (mmHg)": 1.11, "melting point": -98}, {"compound": "COc1ccnc2ccccc12", "boiling point": 245, "melting point": 41}, {"compound": "CC1=CC(=O)c2c(O)cccc2C1=O", "melting point": 78.5}, {"compound": "COc1c(Cl)c(Cl)cc(Cl)c1Cl", "melting point": 88.5}]}, {"settings": "fish", "values": [{"compound": "c1cc2c3c(cccc3c1)CC2", "log10 BCF": 2.88}, {"compound": "Cc1cccc(C)c1", "log10 BCF": 1.17}, {"compound": "COc1c(Cl)c(Cl)cc(Cl)c1Cl", "log10 BCF": 3.69}]}]}
